Patent US10927105B1 (Lundbeck La Jolla Research Center, Inc., priority 2017, dated 2021)

These molecules were tested against MAGL (Homo sapiens (Human), UniProt Q99685) (assay: In vitro competitive activity-based protein profiling (human prefrontal cortex membrane fractions, FP-Rh probe), MAGL band). Conditions: read-out: MAGL IC50 (μM) (human); human prefrontal cortex membrane fractions.
Chain of MAGL (Q99685 whole entry): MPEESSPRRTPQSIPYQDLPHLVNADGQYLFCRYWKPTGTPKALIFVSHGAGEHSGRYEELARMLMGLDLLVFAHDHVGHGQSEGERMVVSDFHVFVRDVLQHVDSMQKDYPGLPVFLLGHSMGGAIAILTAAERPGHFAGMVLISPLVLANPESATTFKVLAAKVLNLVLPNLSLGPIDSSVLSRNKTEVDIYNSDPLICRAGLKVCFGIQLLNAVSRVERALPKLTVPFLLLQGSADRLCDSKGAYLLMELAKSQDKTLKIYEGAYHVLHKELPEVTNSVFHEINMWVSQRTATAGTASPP

With `O=C(O)c1ccn(C(=O)N2C[C@H]3C[C@H](Oc4cc(Cl)cc(Cl)c4)C[C@H]3C2)n1` [Example 230, 1-(trans-5-(3,5-dichlorophenoxy)-octahydrocyclopenta-[c]pyrrole-2-carbonyl)-1H-pyrazole-3-carboxylic acid] as the molecule, how does the IC50 read?
Its IC50 is less than 0.1 µM.

How did the IC50 turn out when `Cc1cn(C(=O)N2CCC(C)(N(C)Cc3ccc(C(F)(F)F)cc3N3CCCC3)CC2)nc1C(=O)O` [Example 398] was run?
The IC50 was less than 0.1 µM.

How did the IC50 turn out when `Cc1ccc(COC2CCN(C(=O)n3ccc(C(=O)O)n3)CC2)cc1C(F)(F)F` [Example 236, 1-(4-((4-methyl-3-(trifluoromethyl)-benzyl)oxy)-piperidine-1-carbonyl)-1H-pyrazole-3-carboxylic acid] was run?
The IC50 was less than 0.1 µM.

`Cc1cc(-c2ccccc2)ccc1CN1CCN(C(=O)n2ccc(C(=O)O)n2)CC1` [Example 16, 1-(4-((3-Methyl-[1,1′-biphenyl]-4-yl)methyl)piperazine-1-carbonyl)-1H-pyrazole-3-carboxylic acid] was tested. Which IC50 did it give?
Its IC50 is less than 0.1 µM.

How did the IC50 turn out when `Cc1cn(C(=O)N2C[C@H]3C[C@H](OCc4cccc(C(F)(F)F)c4C)C[C@H]3C2)nc1C(=O)O` [Example 306, 4-methyl-1-(trans-5-((2-methyl-3-(trifluoromethyl)-benzyl)oxy)-octahydrocyclopenta-[c]pyrrole-2-carbonyl)-1H-pyrazole-3-carboxylic acid] was run?
Its IC50 is less than 0.1 µM.

Which IC50 does the source give for `O=C(O)c1nn(C(=O)N2C[C@H]3C[C@H](OCc4cccc(C(F)(F)F)c4)C[C@H]3C2)cc1Cl` [Example 314, 4-chloro-1-(trans-5-((3-(trifluoromethyl)-benzyl)oxy)-octahydrocyclopenta-[c]pyrrole-2-carbonyl)-1H-pyrazole-3-carboxylic acid] here?
Its IC50 is less than 0.1 µM.

`O=C(O)c1ccn(C(=O)N2CCN(Cc3ccc(Oc4ccc(Cl)cc4)cc3)CC2)n1` [Example 45, 1-(4-(4-(4-chlorophenoxy)-benzyl)piperazine-1-carbonyl)-1H-pyrazole-3-carboxylic acid] was tested. Which IC50 did it give?
Its IC50 is less than 0.1 µM.

How did the IC50 turn out when `CN(Cc1cc(N2CCCC2)cc(C(F)(F)F)c1)C1(C)CCN(C(=O)n2ccc(C(=O)O)n2)CC1` [Example 381, 1-(4-methyl-4-(methyl(3-(pyrrolidin-1-yl)-5-(trifluoromethyl)-benzyl)amino)-piperidine-1-carbonyl)-1H-pyrazole-3-carboxylic acid] was run?
The IC50 was less than 0.1 µM.

For `O=C(O)c1nn(C(=O)N2CC3CN(Cc4cc(Cl)cc(C(F)(F)F)c4)CC3C2)cc1Cl` (stereo not drawn) [Example 357, 4-chloro-1-(5-(3-chloro-5-(trifluoromethyl)-benzyl)-octahydropyrrolo-[3,4-c]pyrrole-2-carbonyl)-1H-pyrazole-3-carboxylic acid], which IC50 is on record?
Its IC50 is less than 0.1 µM.

For `O=C(O)c1ccn(C(=O)N2C[C@H]3C[C@H](Oc4ccccc4-c4cccnc4)C[C@H]3C2)n1` [Example 244, 1-(trans-5-(2-(pyridin-3-yl)phenoxy)-octahydrocyclopenta-[c]pyrrole-2-cathonyl)-1H-pyrazole-3-carboxylic acid], which IC50 is on record?
Its IC50 is less than 0.1 µM.

How did the IC50 turn out when `NC(=O)c1ccn(C(=O)N2CCC3(CCN(Cc4ccc(N5CCOCC5)cc4C(F)(F)F)C3)C2)n1` (stereo not drawn) [Example 436, 1-(7-(4-morpholino-2-(trifluoromethyl)-benzyl)-2,7-diazaspiro-[4.4]nonane-2-carbonyl)-1H-pyrazole-3-carboxamide] was run?
The IC50 was less than 0.1 µM.

For `CN(Cc1ccc(C(F)(F)F)c(N2CCCC2)c1)C1(C)CCN(C(=O)n2ccc(C(=O)O)n2)CC1` [Example 385, 1-(4-methyl-4-(methyl(3-(pyrrolidin-1-yl)-4-(trifluoromethyl)-benzyl)amino)-piperidine-1-carbonyl)-1H-pyrazole-3-carboxylic acid], which IC50 is on record?
The IC50 was less than 0.1 µM.

Which IC50 does the source give for `O=C(O)c1ccn(C(=O)N2CCC3(CCN(Cc4ccc(-c5ccccc5)cc4C(F)(F)F)C3)CC2)n1` [Example 170, 1-(2-((3-(trifluoromethyl)-[1,1′-biphenyl]-4-yl)methyl)-2,8-diazaspiro[4.5]-decane-8-carbonyl)-1H-pyrazole-3-carboxylic acid] here?
Its IC50 is less than 0.1 µM.

With `O=C(O)c1ccn(C(=O)N2CCN(Cc3cc(Cl)cc(-c4cncnc4)c3)CC2)n1` [Example 269, 1-(4-(3-chloro-5-(pyrimidin-5-yl)benzyl)-piperazine-1-carbonyl)-1H-pyrazole-3-carboxylic acid] as the molecule, how does the IC50 read?
The IC50 was less than 0.1 µM.

Which IC50 does the source give for `O=C(O)c1nn(C(=O)N2CCN(Cc3cc(F)cc(Oc4ccc(Cl)cc4)c3)CC2)cc1C(F)(F)F` [Example 408, 1-(4-(3-(4-chlorophenoxy)-5-fluorobenzyl)-piperazine-1-carbonyl)-4-(trifluoromethyl)-1H-pyrazole-3-carboxylic acid] here?
Its IC50 is less than 0.1 µM.

`O=C(O)c1nn(C(=O)N2CCN(Cc3cccc(Oc4ccc(F)cc4)c3)CC2)cc1Cl` [Example 320, 4-chloro-1-(4-(3-(4-fluorophenoxy)-benzyl)-piperazine-1-carbonyl)-1H-pyrazole-3-carboxylic acid] was tested. Which IC50 did it give?
The IC50 was less than 0.1 µM.

`C[C@@H]1CN(Cc2ccc(C(F)(F)F)cc2N2CCCC2)CCN1C(=O)n1ccc(C(=O)O)n1` [Example 327, (R)-1-(2-methyl-4-(2-(pyrrolidin-1-yl)-4-(trifluoromethyl)-benzyl)-piperazine-1-carbonyl)-1H-pyrazole-3-carboxylic acid] was tested. Which IC50 did it give?
Its IC50 is less than 0.1 µM.

For `CC(C)(O)COc1cccc(CN2CCN(C(=O)n3ccc(C(=O)O)n3)CC2)c1Cl` [Example 213, 1-(4-(2-chloro-3-(2-hydroxy-2-methylpropoxy)-benzyl)piperazine-1-carbonyl)-1H-pyrazole-3-carboxylic acid], which IC50 is on record?
The IC50 was less than 0.1 µM.

How did the IC50 turn out when `Cc1c(COC2CCN(C(=O)n3ccc(C(=O)O)n3)CC2)cccc1C(F)(F)F` [Example 235, 1-(4-((2-methyl-3-(trifluoromethyl)-benzyl)oxy)-piperidine-1-carbonyl)-1H-pyrazole-3-carboxylic acid] was run?
The IC50 was less than 0.1 µM.

Which IC50 does the source give for `O=C(O)c1ccn(C(=O)N2C[C@H]3C[C@H](Oc4cccc(-c5ccccn5)c4)C[C@H]3C2)n1` [Example 242, 1-(trans-5-(3-(pyridin-2-yl)phenoxy)-octahydrocyclopenta-[c]pyrrole-2-carbonyl)-1H-pyrazole-3-carboxylic acid] here?
The IC50 was less than 0.1 µM.

With `O=C(O)c1nn(C(=O)N2CCC3(CCN(Cc4cc(Cl)ccc4C(F)(F)F)C3)CC2)cc1Cl` [Example 133, 4-chloro-1-(2-(5-chloro-2-(trifluoromethyl)-benzyl)-2,8-diazaspiro[4.5]-decane-8-carbonyl)-1H-pyrazole-3-carboxylic acid] as the molecule, how does the IC50 read?
Its IC50 is less than 0.1 µM.

Which IC50 does the source give for `O=C(O)c1nn(C(=O)N2C[C@H]3C[C@H](OCc4cc(F)cc(Cl)c4)C[C@H]3C2)cc1Cl` [Example 296, 4-chloro-1-(trans-5-((3-chloro-5-fluorobenzyl)oxy)-octahydrocyclopenta-[c]pyrrole-2-carbonyl)-1H-pyrazole-3-carboxylic acid] here?
The IC50 was less than 0.1 µM.

How did the IC50 turn out when `C[C@H]1CN(Cc2cc(F)cc(Oc3ccccc3Cl)c2)CCN1C(=O)n1ccc(C(=O)O)n1` [Example 349, (S)-1-(4-(3-(2-chlorophenoxy)-5-fluorobenzyl)-2-methylpiperazine-1-carbonyl)-1H-pyrazole-3-carboxylic acid] was run?
The IC50 was less than 0.1 µM.

For `CC(C)(O)COc1cccc(O[C@H]2C[C@@H]3CN(C(=O)n4ccc(C(=O)O)n4)C[C@@H]3C2)c1Cl` [Example 451, 1-(trans-5-(2-chloro-3-(2-hydroxy-2-methylpropoxy)-phenoxy)-octahydrocyclopenta-[c]pyrrole-2-carbonyl)-1H-pyrazole-3-carboxylic acid], which IC50 is on record?
Its IC50 is less than 0.1 µM.

How did the IC50 turn out when `NC(=O)c1ccn(C(=O)N2CCC3(CCN(Cc4cc(Cl)cc(C(F)(F)F)c4)C3)C2)n1` (stereo not drawn) [Example 433, 1-(7-(3-chloro-5-(trifluoromethyl)-benzyl)-2,7-diazaspiro[4.4]-nonane-2-carbonyl)-1H-pyrazole-3-carboxamide] was run?
The IC50 was less than 0.1 µM.

`O=C(O)c1ccn(C(=O)N2CCN(Cc3cccc(Oc4ccnc(C(F)(F)F)c4)c3)CC2)n1` [Example 355, 1-(4-(3-((2-(trifluoromethyl)-pyridin-4-yl)oxy)benzyl)-piperazine-1-carbonyl)-1H-pyrazole-3-carboxylic acid] was tested. Which IC50 did it give?
Its IC50 is less than 0.1 µM.

For `O=C(O)c1nn(C(=O)N2CCN(Cc3cc(F)cc(Oc4ccc(Cl)cc4)c3)CC2)cc1Cl` [Example 378, 4-chloro-1-(4-(3-(4-chlorophenoxy)-5-fluorobenzyl)-piperazine-1-carbonyl)-1H-pyrazole-3-carboxylic acid], which IC50 is on record?
Its IC50 is less than 0.1 µM.

With `CNC(=O)c1ccn(C(=O)N2CCC3(CCN(Cc4cc(Cl)cc(C(F)(F)F)c4)C3)C2)n1` (stereo not drawn) [Example 435, 1-(7-(3-chloro-5-(trifluoromethyl)-benzyl)-2,7-diazaspiro[4.4]-nonane-2-carbonyl)-N-methyl-1H-pyrazole-3-carboxamide] as the molecule, how does the IC50 read?
The IC50 was less than 0.1 µM.

With `CN(Cc1cc(C(F)(F)F)ccc1N1CCCC1)C1(C)CCN(C(=O)n2ccc(C(=O)O)n2)CC1` [Example 384, 1-(4-methyl-4-(methyl(2-(pyrrolidin-1-yl)-5-(trifluoromethyl)-benzyl)amino)-piperidine-1-carbonyl)-1H-pyrazole-3-carboxylic acid] as the molecule, how does the IC50 read?
The IC50 was less than 0.1 µM.

For `O=C(O)c1ccn(C(=O)N2CCN(Cc3cccc(Oc4ccc(F)cc4)c3)CC2)n1` [Example 51, 1-(4-(3-(4-fluorophenoxy)-benzyl)piperazine-1-carbonyl)-1H-pyrazole-3-carboxylic acid], which IC50 is on record?
Its IC50 is less than 0.1 µM.

With `C[C@@H]1CN(Cc2cccc(Oc3cc(C(F)(F)F)ccn3)c2)CCN1C(=O)n1ccc(C(=O)O)n1` [Example 374, (R)-1-(2-methyl-4-(3-((4-(trifluoromethyl)-pyridin-2-yl)oxy)benzyl)-piperazine-1-carbonyl)-1H-pyrazole-3-carboxylic acid] as the molecule, how does the IC50 read?
Its IC50 is less than 0.1 µM.

How did the IC50 turn out when `O=C(O)c1ccn(C(=O)N2C[C@H]3C[C@H](Oc4cccc(-c5cccnc5)c4)C[C@H]3C2)n1` [Example 241, 1-(trans-5-(3-(pyridin-3-yl)phenoxy)-octahydrocyclopenta-[c]pyrrole-2-carbonyl)-1H-pyrazole-3-carboxylic acid] was run?
Its IC50 is less than 0.1 µM.

With `C[C@@H]1C[C@H](N(C)Cc2cccc(C(F)(F)F)c2)CCN1C(=O)n1ccc(C(N)=O)n1` [Example 257, 1-((2R,4R)-2-methyl-4-(methyl(3-(trifluoromethyl)-benzyl)amino)-piperidine-1-carbonyl)-1H-pyrazole-3-carboxamide] as the molecule, how does the IC50 read?
The IC50 was less than 0.1 µM.
